Laboratory results: patent US6605645B2, “Linear polyamine compounds and polyamine-based anti-tumor agents” (Riken, priority 1998, dated 2003)
Like-named read-outs stand apart in the source and are kept apart here.

Assays:
Format in all cases: cell-based
[1] = tested on: ovarian cancer (Ov) cell lines; assay: HCC panel drug sensitivity test, ovarian cancer lines; details: Homo sapiens
Procedure: (§1) For the assay of anticancer effect, used was an HCC panel comprising 39 cell lines in total: 7 cell lines of lung cancer (Lu), 6 cell lines of stomach cancer (St), 5 cell lines of colon cancer (Co), 5 cell lines of ovarian cancer (Ov), 6 cell lines of brain tumor (CNS), 5 cell lines of breast cancer (Br), 2 cell lines of renal cancer (Re), 2 cell lines of prostate cancer (xPg) and 1 cell line of melanoma (Me). These were used as one panel, and an in-vitro drug sensitivity test was performed by using the above three compounds to obtain sensitivity patterns against each compound (mean graphs mentioned below). Further, the mean graphs obtained as the results of the above sensitivity test were compared with data in a database.
(§2) Specifically, the drug sensitivity test was performed according to the following procedures. The above 39 cancer cell lines were seeded to a 96-well plate and incubated overnight. On the following day, sample solutions each containing each of the above three compounds (5 doses, usually from 10^-4 M to 10^-8 M with 1 log intervals, the highest concentration is referred to as “High Conc”) were added to the above 96-well plate and cultured for further 2 days. Subsequently, the cell proliferation was calorimetrically determined in the obtained plate by using Sulfo Rhodamine B.
(§3) In the data analysis, GI50 (concentration at which cell proliferation is inhibited to 50% of a control) is obtained as a parameter for data analysis using the cell number immediately before exposure of cells to the test compound (Time Zero) as a standard. Specifically, the obtained data is used for the following calculation:
(§4) 1) If a mean optical density value at each concentration (OD test) is larger than the OD value at Time Zero (Tz), i.e., OD test >Tz, then percent growth (PG %)=((OD test−Tz)/(OD control−Tz))×100, wherein 1 OD control is the OD value of control. On the contrary, if OD test <Tz, then PG %=((OD test−Tz)/Tz)×100. In this case, PG % is a negative value.
(§5) 2) The above PG % values obtained for each cell line are plotted against concentrations (logarithm) according to the organ cancer type. The concentration at the point where each curve intersects with a horizontal line, provided at PG 50%, corresponds to log GI50.

[2] = tested on: HCC panel comprising 39 cell lines; assay: HCC panel in-vitro drug sensitivity test (Sulfo Rhodamine B), anticancer effect on cultured human cancer cell lines; details: for Delta / Range: HCC panel log GI50; for Delta: criterion ≧ 0.5; for Range: criterion ≧ 1.0; for evaluation as anticancer agent (criteria A-D: novelty, MG-MID, Delta/Range, COMPARE): HCC panel mean graph evaluation; for GI50: Homo sapiens
Procedure: The anticancer effect of each compound was determined by using the obtained concentration.
as §1, §2
The obtained data of the measurement results are shown as mean graphs. Mean graphs (also referred to as fingerprints) visually expresses effective concentration deviations of a sample substance against individual cancer cell lines so that the sensitivity of each cancer cell line against the sample can be recognized at a glance. The mean graph is also referred to as fingerprint because it represents a pattern unique to each drug.
as §3, §4, §5
3) Then, “mean graphs” are created. Mean log GI50 values are obtained for all of the assayed cell lines and referred to as mean graph midpoints (MG-MID). A difference between each of the mean values and the log GI50 value for each cell line is obtained (that is, GI50 for each cell line is represented as a logarithmic value of a multiple or an aliquot of the mean value). The resulting differences are depicted as bar charts extending a left or right side from the center line of mean log GI50 (scale 0) to obtain a mean graph. The higher differential sensitivity a cell line has, the longer the bar extends to the right. One scale corresponds to 1 log. The value of “Delta” provided at the bottom of the mean graph represents the difference between the value for the most sensitive cell line and the mean value. The value of “Range” provided below “Delta” represents the difference between the log GI50 values of the most sensitive cell line and the least sensitive one. […]

[3] = tested on: brain tumor (CNS) cell lines; assay: HCC panel drug sensitivity test, brain tumor lines; details: Homo sapiens
Procedure: as §1, §2, §3, §4, §5

[4] = tested on: lung cancer (Lu) cell lines; assay: HCC panel drug sensitivity test, lung cancer lines; details: Homo sapiens
Procedure: as §1, §2, §3, §4, §5

[5] = tested on: prostate cancer (xPg) cell lines; assay: HCC panel drug sensitivity test, prostate cancer lines; details: Homo sapiens; DU-145 (xPg)
Procedure: as §1
(§6) Specifically, the drug sensitivity test was performed according to the following procedures. The above 39 cancer cell lines were seeded to a 96-well plate and incubated overnight. On the following day, sample solutions each containing each of the above three compounds (5 doses, usually from 10^-4 M to 10^-8 M with 1 log intervals, the highest concentration is referred to as “High Conc”) were added to the above 96-well plate and cultured for further 2 days. Subsequently, the cell proliferation was calorimetrically determined in the obtained plate by using Sulfo Rhodamine B. […]

[6] = tested on: melanoma (Me) cell line; assay: HCC panel drug sensitivity test, melanoma line; details: Homo sapiens; LOX-IMVI (Me)
Procedure: as §1, §6

[7] = tested on: colon cancer (Co) cell lines; assay: HCC panel drug sensitivity test, colon cancer lines; details: Homo sapiens
Procedure: as §1, §2, §3, §4, §5

[8] = tested on: breast cancer (Br) cell lines; assay: HCC panel drug sensitivity test, breast cancer lines; details: Homo sapiens
Procedure: as §1, §2, §3, §4, §5

[9] = tested on: stomach cancer (St) cell lines; assay: HCC panel drug sensitivity test, stomach cancer lines; details: Homo sapiens
Procedure: as §1, §2, §3, §4, §5

[10] = OVCAR-3 (Ov), read-out: log GI50 (converted)
[11] = OVCAR-4 (Ov), read-out: log GI50 (converted)
[12] = OVCAR-5 (Ov), read-out: log GI50 (converted)
[13] = OVCAR-8 (Ov), read-out: log GI50 (converted)
[14] = 48 h, logarithmic values of molar concentration, for many cancer cell lines of the HCC panel, cultured 2 days, Sulfo Rhodamine B, read-out: log GI50 (concentration at which cell proliferation is inhibited to 50% of the control) (converted)
[15] = mean over HCC panel, criterion <−5, read-out: MG-MID (log GI50) (converted)
[16] = SF-268 (CNS), read-out: log GI50 (converted)
[17] = SF-539 (CNS), read-out: log GI50 (converted)
[18] = SNB-75 (CNS), read-out: log GI50 (converted)
[19] = DMS-114, DMS114 (Lu), read-out: log GI50 (converted)
[20] = DMS-273, DMS273 (Lu), read-out: log GI50 (converted)
[21] = A549 (Lu), read-out: log GI50 (converted)
[22] = NCI-H23 (Lu), read-out: log GI50 (converted)
[23] = NCI-H226 (Lu), read-out: log GI50 (converted)
[24] = NCI-H460 (Lu), read-out: log GI50 (converted)
[25] = NCI-H522 (Lu), read-out: log GI50 (converted)

Row | Compound | Delta [2] | Range [2] | evaluation as anticancer agent (criteria A-D: novelty, MG-MID, Delta/Range, COMPARE) [2] | GI50 [6] [µM] | GI50 [1, 10] [µM] | GI50 [1, 11] [µM] | GI50 [1, 12] [µM] | GI50 [1, 13] [µM] | GI50 [2, 14] [µM] | GI50 [2, 15] [µM] | GI50 [3, 16] [µM] | GI50 [3, 17] [µM] | GI50 [3, 18] [µM] | GI50 [4, 19] [µM] | GI50 [4, 20] [µM] | GI50 [4, 21] [µM] | GI50 [4, 22] [µM] | GI50 [4, 23] [µM] | GI50 [4, 24] [µM] | GI50 [4, 25] [µM] | also measured
1 | CCNCCCCNCCCCCCCCNCCCCNCC [BET484, 1,18-bis(ethylamino)-5,14-diazaoctadecane] | 1.45 | 1.62 | the most interesting | – | – | – | – | – | – | – | – | – | – | – | – | – | – | – | – | – | GI50 ([1]; OVCAR-3, read-out: log GI50 (converted)): 20 µM; GI50 ([1]; OVCAR-4, read-out: log GI50 (converted)): 5.89 µM; GI50 ([1]; OVCAR-5, read-out: log GI50 (converted)): 72.4 µM; GI50 ([2]; 48 h, read-out: log GI50 (concentration at which cell proliferation is inhibited to 50% of the control) (converted)): < 100 µM; GI50 ([2]; read-out: MG-MID (log GI50) (converted)): 67.6 µM; GI50 ([3]; read-out: log GI50, SF-539 (CNS) (converted)): 7.94 µM; GI50 ([3]; read-out: log GI50, SNB-75 (CNS) (converted)): 12.9 µM; GI50 ([4]; A549, read-out: log GI50 (converted)): 16.2 µM; GI50 ([4]; DMS-273, read-out: log GI50 (converted)): 3.02 µM
2 | C(CCCNCCCCNCC1CC1)CCCNCCCCNCC1CC1 [BCPM474] | 0.84 | 1.76 | the most interesting | 30.9 | 1.66 | 4.17 | 5.37 | 2.75 | < 100 | 11.5 | 4.68 | 3.47 | 3.63 | 3.8 | 4.17 | 2.82 | 4.37 | 9.12 | 16.6 | 3.24 | GI50 [5]: 67.6 µM; GI50 ([1]; SK-OV-3 (Ov), read-out: log GI50 (converted)): 5.75 µM; GI50 ([3]; SF-295 (CNS), read-out: log GI50 (converted)): 8.71 µM; GI50 ([7]; HCC 2998, HCC2998 (Co)): 10.2 µM; GI50 ([7]; KM12, KM-12 (Co)): 28.2 µM; GI50 ([7]; HCT-15 (Co)): 37.2 µM; GI50 ([7]; HCT-116 (Co)): 6.92 µM; GI50 ([7]; HT-29 (Co)): 8.71 µM; GI50 ([8]; HBC4, HBC-4 (Br)): 4.57 µM; GI50 ([8]; HBC5, HBC-5 (Br)): 2.24 µM; GI50 ([8]; MCF7, MCF-7 (Br)): 56.2 µM; GI50 ([8]; BSY-1 (Br)): 7.08 µM; GI50 ([9]; MKN-1, MKN1 (St)): 12 µM; GI50 ([9]; MKN-7, MKN7 (St)): 4.37 µM; GI50 ([9]; MKN-28, MKN28 (St)): 5.25 µM; GI50 ([9]; MKN-45, MKN45 (St)): 12 µM; GI50 ([9]; MKN-74, MKN74 (St)): 47.9 µM; GI50 ([9]; St-4 (St)): 6.92 µM
3 | C(CCCNCCCCNCC1CC1)CCNCCCCNCC1CC1 [BCPM464, 1,16-bis(cyclopropylmethylamino)-5,12-diazahexadecane] | 1.19 | 2.05 | the most interesting | 6.31 | 3.02 | 2.88 | 4.37 | 5.75 | < 100 | 13.8 | 87.1 | 3.16 | 3.31 | 4.37 | 4.37 | 2.82 | 3.55 | 7.24 | 9.77 | 1.82 | GI50 ([3]; U251 (CNS), read-out: log GI50 (converted)): 60.3 µM; GI50 ([7]; HCC 2998, HCC2998 (Co)): 63.1 µM; GI50 ([7]; HCT-116 (Co)): 6.76 µM; GI50 ([7]; HT-29 (Co)): 23.4 µM; GI50 ([8]; HBC4, HBC-4 (Br)): 6.92 µM; GI50 ([8]; HBC5, HBC-5 (Br)): 0.891 µM; GI50 ([8]; MCF7, MCF-7 (Br)): 13.8 µM; GI50 ([8]; BSY-1 (Br)): 3.55 µM; GI50 ([9]; MKN-1, MKN1 (St)): 7.24 µM; GI50 ([9]; MKN-7, MKN7 (St)): 4.17 µM; GI50 ([9]; MKN-28, MKN28 (St)): 4.68 µM; GI50 ([9]; MKN-45, MKN45 (St)): 6.46 µM; GI50 ([9]; St-4 (St)): 6.46 µM
